# Reference: article PMC5218480 (PLoS ONE, 2017)
# Test system: MV-4-11 cells
# Test: Gene expression microarray analysis (Affymetrix PrimeView) and GSEA
# Assay type: cell-based, human
# Design: RFU PODN (11730768_x_at) / Fold change /veh PODN (11730768_x_at) / RFU LINC00158 (11744669_a_at) / Fold change /veh LINC00158 (11744669_a_at) / RFU DUSP10 (11751237_a_at) / Fold change /veh DUSP10 (11751237_a_at) / RFU ID3 (11757404_x_at) / Fold change /veh ID3 (11757404_x_at) / RFU PLEKHG5 (11737974_s_at) / Fold change /veh PLEKHG5 (11737974_s_at) / RFU LRRC4B (11730491_at) / Fold change /veh LRRC4B (11730491_at) / RFU GIMAP4 (11747438_a_at) / Fold change /veh GIMAP4 (11747438_a_at) / RFU KRT8 (11758183_x_at) / Fold change /veh KRT8 (11758183_x_at) / RFU CNN1 (11734310_a_at) / Fold change /veh CNN1 (11734310_a_at) / RFU VPS37D (11726825_at) / Fold change /veh VPS37D (11726825_at) / RFU C10orf10 (11716522_x_at) / Fold change /veh C10orf10 (11716522_x_at) / RFU KIR2DL2 /// KIR2DL4 /// KIR2DL5A /// KIR2DL5B /// KIR2DS1 /// KIR2DS2 /// KIR2DS3 /// KIR2DS4 /// KIR3DL3 /// KIR3DL3 /// KIR3DS1 (11738374_at) / Fold change /veh KIR2DL2 /// KIR2DL4 /// KIR2DL5A /// KIR2DL5B /// KIR2DS1 /// KIR2DS2 /// KIR2DS3 /// KIR2DS4 /// KIR3DL3 /// KIR3DL3 /// KIR3DS1 (11738374_at) / RFU C1QL1 (11718748_at) / Fold change /veh C1QL1 (11718748_at) / RFU TMPRSS4 (11747572_a_at) / Fold change /veh TMPRSS4 (11747572_a_at) / RFU HAMP (11756126_x_at) / Fold change /veh HAMP (11756126_x_at) / RFU RNFT2 (11725882_a_at) / Fold change /veh RNFT2 (11725882_a_at) / RFU NR4A2 (11747474_a_at) / Fold change /veh NR4A2 (11747474_a_at) / RFU ABCC12 (11746883_a_at) / Fold change /veh ABCC12 (11746883_a_at) / RFU TMEM136 (11760407_x_at) / Fold change /veh TMEM136 (11760407_x_at) / RFU CLDN22 /// WWC2 (11732394_at) / Fold change /veh CLDN22 /// WWC2 (11732394_at) / RFU HLA-DPB1 (11760878_x_at) / Fold change /veh HLA-DPB1 (11760878_x_at) / RFU SPINT1 (11716480_a_at) / Fold change /veh SPINT1 (11716480_a_at) / RFU GAP43 (11754022_s_at) / Fold change /veh GAP43 (11754022_s_at) / RFU A4GNT (11735810_at) / Fold change /veh A4GNT (11735810_at) / RFU PRB3 (11715151_x_at) / Fold change /veh PRB3 (11715151_x_at) / RFU TUBB4B (11761932_at) / Fold change /veh TUBB4B (11761932_at) / RFU CAPN14 (11732068_a_at) / Fold change /veh CAPN14 (11732068_a_at) / RFU TMCC2 (11721928_a_at) / Fold change /veh TMCC2 (11721928_a_at) / RFU IRGQ (11745062_a_at) / Fold change /veh IRGQ (11745062_a_at) / RFU FAM174B (11720279_a_at) / Fold change /veh FAM174B (11720279_a_at) / RFU TMPRSS4 (11748680_a_at) / Fold change /veh TMPRSS4 (11748680_a_at) / RFU FAM212B (11763350_a_at) / Fold change /veh FAM212B (11763350_a_at) / RFU PLEKHG5 (11743358_a_at) / Fold change /veh PLEKHG5 (11743358_a_at) / RFU ZSCAN30 (11745921_a_at) / Fold change /veh ZSCAN30 (11745921_a_at) / RFU CMKLR1 (11741424_a_at) / Fold change /veh CMKLR1 (11741424_a_at) / RFU LOC101060620 /// MAPK8IP1 (11723275_at) / Fold change /veh LOC101060620 /// MAPK8IP1 (11723275_at) / RFU SPTSSB (11747773_x_at) / Fold change /veh SPTSSB (11747773_x_at) / RFU PRSS12 (11739890_at) / Fold change /veh PRSS12 (11739890_at) / RFU BIN1 (11741810_x_at) / Fold change /veh BIN1 (11741810_x_at) / RFU WNT11 (11732464_a_at) / Fold change /veh WNT11 (11732464_a_at) / RFU C10orf10 (11716521_a_at) / Fold change /veh C10orf10 (11716521_a_at) / RFU C5orf56 (11738089_at) / Fold change /veh C5orf56 (11738089_at) / RFU CYB561 (11721691_x_at) / Fold change /veh CYB561 (11721691_x_at) / RFU ANKRD19P (11752326_a_at) / Fold change /veh ANKRD19P (11752326_a_at) / RFU OR2T12 /// OR2T33 /// OR2T8 (11738714_s_at) / Fold change /veh OR2T12 /// OR2T33 /// OR2T8 (11738714_s_at) / RFU VCAN (11748164_a_at) / Fold change /veh VCAN (11748164_a_at) / RFU JSRP1 (11732532_at) / Fold change /veh JSRP1 (11732532_at) / RFU KRTAP10-11 (11738290_x_at) / Fold change /veh KRTAP10-11 (11738290_x_at) / RFU MYO3A (11730013_a_at) / Fold change /veh MYO3A (11730013_a_at) / RFU EBF3 (11725865_a_at) / Fold change /veh EBF3 (11725865_a_at) / RFU CAMK2N1 (11719241_x_at) / Fold change /veh CAMK2N1 (11719241_x_at) / RFU C5orf56 (11738088_a_at) / Fold change /veh C5orf56 (11738088_a_at) / RFU OLFML3 (11715873_a_at) / Fold change /veh OLFML3 (11715873_a_at) / RFU LOC100653217 /// NTM (11731650_a_at) / Fold change /veh LOC100653217 /// NTM (11731650_a_at) / RFU MAPK11 (11762145_a_at) / Fold change /veh MAPK11 (11762145_a_at) / RFU FIZ1 (11724087_x_at) / Fold change /veh FIZ1 (11724087_x_at) / RFU OASL (11726364_x_at) / Fold change /veh OASL (11726364_x_at) / RFU SOX15 (11748057_x_at) / Fold change /veh SOX15 (11748057_x_at) / RFU CD79A (11719716_a_at) / Fold change /veh CD79A (11719716_a_at) / RFU HIST1H1D (11736915_at) / Fold change /veh HIST1H1D (11736915_at) / RFU CASKIN2 (11723855_a_at) / Fold change /veh CASKIN2 (11723855_a_at) / RFU LOC730098 (11760151_x_at) / Fold change /veh LOC730098 (11760151_x_at) / RFU OR4N2 (11742367_at) / Fold change /veh OR4N2 (11742367_at) / RFU PRRT2 (11749266_a_at) / Fold change /veh PRRT2 (11749266_a_at) / RFU SNX32 (11753110_a_at) / Fold change /veh SNX32 (11753110_a_at) / RFU CDHR5 (11726645_a_at) / Fold change /veh CDHR5 (11726645_a_at) / RFU RCAN1 (11760418_a_at) / Fold change /veh RCAN1 (11760418_a_at) / RFU FAM167A (11723789_a_at) / Fold change /veh FAM167A (11723789_a_at) / RFU FAM26E (11764081_at) / Fold change /veh FAM26E (11764081_at) / RFU ISYNA1 (11749810_s_at) / Fold change /veh ISYNA1 (11749810_s_at) / RFU ACY1 (11761880_at) / Fold change /veh ACY1 (11761880_at) / RFU 11764098_at / Fold change /veh 11764098_at / RFU SAMD14 (11745864_x_at) / Fold change /veh SAMD14 (11745864_x_at) / RFU NPB (11741838_a_at) / Fold change /veh NPB (11741838_a_at) / RFU TMPRSS6 (11731388_a_at) / Fold change /veh TMPRSS6 (11731388_a_at) / RFU KRTAP10-2 (11738614_at) / Fold change /veh KRTAP10-2 (11738614_at) / RFU ARHGAP8 /// PRR5-ARHGAP8 (11727945_x_at) / Fold change /veh ARHGAP8 /// PRR5-ARHGAP8 (11727945_x_at) / RFU KRTAP5-7 /// NADSYN1 (11734609_at) / Fold change /veh KRTAP5-7 /// NADSYN1 (11734609_at) / RFU RASL12 (11751679_a_at) / Fold change /veh RASL12 (11751679_a_at) / RFU CDKN2B (11736163_a_at) / Fold change /veh CDKN2B (11736163_a_at) / RFU PRF1 (11729649_at) / Fold change /veh PRF1 (11729649_at) / RFU, ZNF638 /// ZNF638-IT1 / Fold change vs veh, ZNF638 /// ZNF638-IT1 / RFU, PANK3 / Fold change vs veh, PANK3 / RFU, SH3YL1 / Fold change vs veh, SH3YL1 / RFU, ZEB2 / Fold change vs veh, ZEB2 / RFU, NRIP1 / Fold change vs veh, NRIP1 / RFU, PTTG1IP / Fold change vs veh, PTTG1IP / RFU, CAPN2 / Fold change vs veh, CAPN2 / RFU, MED14 / Fold change vs veh, MED14 / RFU, SNORA58 / Fold change vs veh, SNORA58 / RFU, C1orf63 / Fold change vs veh, C1orf63 / RFU, LRRFIP1 / Fold change vs veh, LRRFIP1 / RFU, NDUFAF7 / Fold change vs veh, NDUFAF7 / RFU, SLC12A2 / Fold change vs veh, SLC12A2 / RFU, IBTK / Fold change vs veh, IBTK / RFU, ESF1 / Fold change vs veh, ESF1 / Fold change vs veh, TMEM50B / RFU, TAOK1 / Fold change vs veh, TAOK1 / RFU, ACBD3 / Fold change vs veh, ACBD3 / RFU, TMA16 / Fold change vs veh, TMA16 / RFU, RWDD3 / Fold change vs veh, RWDD3 / RFU, BCAT1 / Fold change vs veh, BCAT1 / RFU, EDEM3 / Fold change vs veh, EDEM3 / RFU, TMEM33 / Fold change vs veh, TMEM33 / RFU, WDR75 / Fold change vs veh, WDR75 / RFU, AHCTF1 / Fold change vs veh, AHCTF1 / RFU, TFRC / Fold change vs veh, TFRC / RFU, ZDHHC17 / Fold change vs veh, ZDHHC17 / RFU, NOM1 / Fold change vs veh, NOM1 / RFU, ARL8B / Fold change vs veh, ARL8B / RFU, ZBTB11 / Fold change vs veh, ZBTB11 / RFU, TAMM41 / Fold change vs veh, TAMM41 / RFU, KIAA1704 /// LOC100996395 / Fold change vs veh, KIAA1704 /// LOC100996395 / RFU, ING1 / Fold change vs veh, ING1 / RFU, TRMT61B / Fold change vs veh, TRMT61B / RFU, FUBP3 / Fold change vs veh, FUBP3 / RFU, TP53 / Fold change vs veh, TP53 / RFU, TNKS2 / Fold change vs veh, TNKS2 / RFU, ZFP14 / Fold change vs veh, ZFP14 / RFU, ACTR2 / Fold change vs veh, ACTR2 / RFU, PPP3R1 / Fold change vs veh, PPP3R1 / RFU, PIK3R1 / Fold change vs veh, PIK3R1 / RFU, HNRNPA1 / Fold change vs veh, HNRNPA1 / RFU, RNF170 / Fold change vs veh, RNF170 / RFU, ZNF28 / Fold change vs veh, ZNF28 / RFU, RNGTT / Fold change vs veh, RNGTT / RFU, OGT / Fold change vs veh, OGT / RFU, BRD1 / Fold change vs veh, BRD1 / RFU, MARS / Fold change vs veh, MARS / RFU, ZNF655 / Fold change vs veh, ZNF655 / RFU, FAHD1 / Fold change vs veh, FAHD1 / RFU, BDP1 / Fold change vs veh, BDP1 / RFU, LRRCC1 / Fold change vs veh, LRRCC1 / RFU, ARID1A / Fold change vs veh, ARID1A / RFU, ZNF146 / Fold change vs veh, ZNF146 / RFU, ZNF330 / Fold change vs veh, ZNF330 / RFU, GPN3 / Fold change vs veh, GPN3 / RFU, C9orf123 / Fold change vs veh, C9orf123 / RFU, N4BP2L2 / Fold change vs veh, N4BP2L2 / RFU, ARFIP1 / Fold change vs veh, ARFIP1 / RFU, FAM179B / Fold change vs veh, FAM179B / RFU, BCL10 / Fold change vs veh, BCL10 / RFU, UHRF1BP1L / Fold change vs veh, UHRF1BP1L / RFU, BET1 / Fold change vs veh, BET1 / RFU, CNOT2 / Fold change vs veh, CNOT2 / RFU, ZNF268 / Fold change vs veh, ZNF268 / Fold change vs veh, ZNF507 / RFU, DGCR2 / Fold change vs veh, DGCR2 / RFU, WDSUB1 / Fold change vs veh, WDSUB1 / Fold change vs veh, HSP90B1 /// MIR3652 / RFU, ADSS / Fold change vs veh, ADSS / RFU, GK / Fold change vs veh, GK / RFU, ZNF148 / Fold change vs veh, ZNF148 / RFU, TAF9 / Fold change vs veh, TAF9 / RFU, SLC1A5 / Fold change vs veh, SLC1A5 / RFU, SLMO2 / Fold change vs veh, SLMO2 / RFU, ABCC4 / Fold change vs veh, ABCC4 / RFU, LOC101060439 /// RAP1B / Fold change vs veh, LOC101060439 /// RAP1B / RFU, RFX7 / Fold change vs veh, RFX7 / RFU, GTPBP10 / Fold change vs veh, GTPBP10 / RFU, CNEP1R1 / Fold change vs veh, CNEP1R1 / RFU, BIVM-ERCC5 /// ERCC5 / Fold change vs veh, BIVM-ERCC5 /// ERCC5 / RFU, ILF3 / Fold change vs veh, ILF3 / RFU 11762660_at / Fold change /veh 11762660_at / RFU VCAN (11757783_s_at) / Fold change /veh VCAN (11757783_s_at) / RFU DDX43 (11728927_at) / Fold change /veh DDX43 (11728927_at) / RFU KRT8 (11758188_x_at) / Fold change /veh KRT8 (11758188_x_at) / RFU NKD1 (11759106_at) / Fold change /veh NKD1 (11759106_at) / RFU SRD5A1 (11742802_a_at) / Fold change /veh SRD5A1 (11742802_a_at) / RFU TPSAB1 /// TPSB2 (11721975_s_at) / Fold change /veh TPSAB1 /// TPSB2 (11721975_s_at) / RFU GSTM3 (11746129_a_at) / Fold change /veh GSTM3 (11746129_a_at) / RFU IL23R (11737362_x_at) / Fold change /veh IL23R (11737362_x_at) / RFU TMEM51 (11727254_a_at) / Fold change /veh TMEM51 (11727254_a_at) / RFU PIWIL2 (11732686_x_at) / Fold change /veh PIWIL2 (11732686_x_at) / RFU ORM1 (11744905_x_at) / Fold change /veh ORM1 (11744905_x_at) / RFU CCDC152 (11743942_at) / Fold change /veh CCDC152 (11743942_at) / RFU ECM1 (11717891_a_at) / Fold change /veh ECM1 (11717891_a_at) / RFU IL23R (11748794_a_at) / Fold change /veh IL23R (11748794_a_at) / RFU TNFAIP8L3 (11732012_x_at) / Fold change /veh TNFAIP8L3 (11732012_x_at) / RFU MBOAT4 (11741988_at) / Fold change /veh MBOAT4 (11741988_at) / RFU 11764193_at / Fold change /veh 11764193_at / RFU TMEM53 (11763286_at) / Fold change /veh TMEM53 (11763286_at) / RFU MAGEB2 (11727129_at) / Fold change /veh MAGEB2 (11727129_at) / RFU TMEM200A (11744735_a_at) / Fold change /veh TMEM200A (11744735_a_at) / RFU CCDC152 (11751479_a_at) / Fold change /veh CCDC152 (11751479_a_at) / RFU FAM211A (11726209_a_at) / Fold change /veh FAM211A (11726209_a_at) / RFU RGS16 (11746705_a_at) / Fold change /veh RGS16 (11746705_a_at) / RFU VCAN (11755009_s_at) / Fold change /veh VCAN (11755009_s_at) / RFU RHOB (11743442_s_at) / Fold change /veh RHOB (11743442_s_at) / RFU RGS16 (11720943_a_at) / Fold change /veh RGS16 (11720943_a_at) / RFU RGS16 (11720944_at) / Fold change /veh RGS16 (11720944_at) / RFU, VPS4B / Fold change vs veh, VPS4B / RFU, CREB1 / Fold change vs veh, CREB1 / RFU, DNAJC13 / Fold change vs veh, DNAJC13 / RFU, GNAQ / Fold change vs veh, GNAQ / RFU, CDK5R1 / Fold change vs veh, CDK5R1 / RFU, ZRANB3 / Fold change vs veh, ZRANB3 / RFU, CUL4A / Fold change vs veh, CUL4A / RFU, CCNY / Fold change vs veh, CCNY / RFU, UFL1 / Fold change vs veh, UFL1 / RFU, COG3 / Fold change vs veh, COG3 / RFU, DIAPH2 / Fold change vs veh, DIAPH2 / RFU, SKA2 / Fold change vs veh, SKA2 / RFU, AFF3 / Fold change vs veh, AFF3 / RFU, LMF1 / Fold change vs veh, LMF1 / RFU, IPO11 / Fold change vs veh, IPO11 / RFU, DFFB / Fold change vs veh, DFFB / RFU, FOXP1 / Fold change vs veh, FOXP1 / RFU, CARD8 / Fold change vs veh, CARD8 / RFU, STRN3 / Fold change vs veh, STRN3 / RFU, ADK / Fold change vs veh, ADK / RFU, RASSF2 / Fold change vs veh, RASSF2 / RFU, WIPF1 / Fold change vs veh, WIPF1 / RFU, LARP1B / Fold change vs veh, LARP1B / RFU, RASA1 / Fold change vs veh, RASA1 / RFU, RB1 / Fold change vs veh, RB1 / RFU, PPFIA1 / Fold change vs veh, PPFIA1 / RFU, MAT2A / Fold change vs veh, MAT2A / RFU, CCT5 / Fold change vs veh, CCT5 / RFU, WDR92 / Fold change vs veh, WDR92 / RFU, CUX1 / Fold change vs veh, CUX1 / RFU, TTC7A / Fold change vs veh, TTC7A / RFU, TMEM135 / Fold change vs veh, TMEM135 / RFU, DEPTOR / Fold change vs veh, DEPTOR / RFU, CPM / Fold change vs veh, CPM / RFU, DNAJB6 / Fold change vs veh, DNAJB6 / RFU, CACNA2D3 / Fold change vs veh, CACNA2D3 / RFU, DTX4 / Fold change vs veh, DTX4 / RFU, TFCP2 / Fold change vs veh, TFCP2 / RFU, GMCL1 /// GMCL1P1 / Fold change vs veh, GMCL1 /// GMCL1P1 / RFU, AEBP2 / Fold change vs veh, AEBP2 / RFU, SNHG1 /// SNORD22 /// SNORD25 /// SNORD26 /// SNORD27 /// SNORD28 /// SNORD29 /// SNORD31 / Fold change vs veh, SNHG1 /// SNORD22 /// SNORD25 /// SNORD26 /// SNORD27 /// SNORD28 /// SNORD29 /// SNORD31 / Fold change (Aza/veh), C12orf56 (ProbeSet 11735607_a_at) / Fold change (ACY-1035/veh), C12orf56 (ProbeSet 11735607_a_at) / Fold change (Aza/veh), FGFR1OP (ProbeSet 11751329_s_at) / Fold change (ACY-1035/veh), FGFR1OP (ProbeSet 11751329_s_at) / Fold change (Aza/veh), VPS36 (ProbeSet 11739960_a_at) / Fold change (ACY-1035/veh), VPS36 (ProbeSet 11739960_a_at) / RFU SYPL1 (11715823_x_at) / Fold change /veh SYPL1 (11715823_x_at) / RFU IGFBP7 (11715501_s_at) / Fold change /veh IGFBP7 (11715501_s_at) / RFU REEP3 (11722064_at) / Fold change /veh REEP3 (11722064_at) / RFU IGLL1 (11728026_x_at) / Fold change /veh IGLL1 (11728026_x_at): dose or concentration left out as unconfirmed
# Settings: MV-4-11 cells, 48 hours
smiles,measurement,value
Nc1ccc(-c2cccs2)cc1NC(=O)c1ccc2c(c1)cc(C1CC1)n2CCN1CCOCC1 [ACY-1035],Fold change /veh CYB561 (11721691_x_at),0.97
